Assay results as given in patent publication US11827628B2, “Compositions and methods for inhibition of the JAK pathway” (Rigel Pharmaceuticals, Inc., priority 2005, dated 2023).

tested on: up-regulation of ICAM-1 (CD54) by IFNγ in U937 human monocytic cells; experiment: U937 IFNγ ICAM1 FACS Assay; type: cell-based; settings: U937 cells stimulated with IFNγ; ICAM-1 expression by FACS; read-out: IC50, Example 44
Summary of the method: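 U937 cells in 10% FCS RPMI were preincubated 30 min at 37 °C with an 8-point, 3-fold compound dilution series in duplicate, then stimulated with IFNγ for 18–24 h. Surface ICAM-1 was stained with APC anti-ICAM-1 and read by flow cytometry as geometric mean on live-gated cells. EC50 was derived.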

Compound | IC50 [nM]
Cc1cc(Nc2nc(Nc3ccc(S(N)(=O)=O)cc3)ncc2F)ccc1OCC#N [Compound I-22, N2-(4-Aminosulfonyl)phenyl-N4-(4-cyanomethoxy-3-methyl)phenyl-5-fluoro-2,4-pyrimidinediamine] | 4430
Cc1ccc(Nc2ncc(F)c(Nc3cc(C)c(OCC#N)c(C)c3)n2)cc1S(N)(=O)=O [Compound I-27, N2-(3-Aminosulfonyl-4-methyl)phenyl-N4-(4-cyanomethoxy-3,5-dimethyl)phenyl-5-fluoro-2,4-pyrimidinediamine] | 534
Cc1cc(Nc2nc(Nc3cccc(S(N)(=O)=O)c3)ncc2F)ccc1OCC#N [Compound I-23, N2-(3-Aminosulfonyl)phenyl-N4-(4-cyanomethoxy-3-methyl)phenyl-5-fluoro-2,4-pyrimidinediamine] | 455
CCN(CC)CCNS(=O)(=O)c1ccc(Nc2ncc(F)c(Nc3ccc(OCc4cc(C)on4)c(C)c3)n2)cc1 [Compound I-245, N2-[4-(2-N,N-Diethylaminoethyl)aminosulfonylphenyl)-5-fluoro-N4-[3-methyl-4-(5-methylisoxazol-3-yl)methyleneoxyphenyl]-2,4-pyrimidinediamine] | 4190
N#CCOc1ccc(Nc2nc(Nc3ccc(Cl)c(S(N)(=O)=O)c3)ncc2F)cc1 [Compound I-21, N2-(3-Aminosulfonyl-4-chlorophenyl)-N4-(4-cyanomethoxy)phenyl-5-fluoro-2,4-pyrimidinediamine] | 822
Cc1ccc(Nc2ncc(F)c(Nc3cccc(CNC(=O)C4CC4)c3)n2)cc1S(N)(=O)=O [III-40, N2-(3-aminosulfonyl-4-methyl)phenyl-N4-(3-cyclopropylcarbonylaminomethyl)phenyl-5-fluoro-2,4-pyrimidinediamine] | 1120

The remaining compounds from weak to strong by IC50, led by results:

IC50 [nM] | Compound
5520 | CNS(=O)(=O)c1cc(Nc2ncc(F)c(Nc3cccc(OCc4nc(C)no4)c3)n2)ccc1C [Compound I-255, 5-Fluoro-N2-[3-(N-methylaminosulfony)-4-methylphenyl]-N4-[3-(3-methyl-1,2,4-oxadiazol-5-yl)methyleneoxyphenyl]-2,4-pyrimidinediamine]
3120 | CCN(CC)CCNS(=O)(=O)c1cccc(Nc2ncc(F)c(Nc3ccc(OCc4cc(C)on4)c(C)c3)n2)c1 [Compound I-244, N2-[3-(2-N,N-Diethylaminoethyl)aminosulfonylphenyl)-5-fluoro-N4-[3-methyl-4-(5-methylisoxazol-3-yl)methyleneoxyphenyl]-2,4-pyrimidinediamine]
2270 | Cc1nnc(COc2ccc(Nc3nc(Nc4ccc(F)c(S(N)(=O)=O)c4)ncc3F)cc2)o1 [Compound I-278, N2-(3-Aminosulfonyl-4-fluorophenyl)-5-fluoro-N4-[4-(5-methyl-1,3,4-oxadiazol-2-yl)methyleneoxyphenyl]-2,4-pyrimidinediamine]
1750 | Cc1cc(COc2ccc(Nc3nc(Nc4ccc(F)c(S(N)(=O)=O)c4)ncc3F)cc2)no1 [Compound I-233, N2-(3-Aminosulfonyl-4-fluorophenyl)-5-fluoro-N4-[4-(5-methylisoxazol-3-yl)methyleneoxyphenyl]-2,4-pyrimidinediamine]
1040 | 5-Fluoro-N4-[4-(3-methyl-1,2,4-oxadiazol-3-yl)methyleneoxyphenyl]-N2-[(3-N-propanamido)sulfonylphenyl)]-2,4-pyrimidinediamine [Compound I-262]
324 | Cc1noc(COc2ccc(Nc3nc(Nc4cccc(S(N)(=O)=O)c4)ncc3F)cc2)n1 [Compound I-258, N2-(3-Aminosulfonylphenyl)-5-fluoro-N4-[4-(3-methyl-1,2,4-oxadiazol-5-yl)methyleneoxyphenyl]-2,4-pyrimidinediamine]
315 | Cc1noc(COc2ccc(Nc3nc(Nc4ccc(C)c(S(N)(=O)=O)c4)ncc3F)cc2)n1 [Compound I-259, N2-(3-Aminosulfonyl-4-methylphenyl)-5-fluoro-N4-[4-(3-methyl-1,2,4-oxadiazol-5-yl)methyleneoxyphenyl]-2,4-pyrimidinediamine]
